The source of these data is ChEMBL document CHEMBL3774336, “Identification of spirooxindole and dibenzoxazepine motifs as potent mineralocorticoid receptor antagonists” (Bioorg Med Chem, 2016).

Where only a bound is given, the exact number is not on record here.

The term inhibition denotes the share of the control response that was lost under treatment. A lower inhibition goes with a response near the control. By half-life is commonly meant the time in which the quantity being followed falls by half. Higher therefore signals slow decline. One may read the IC50 as the midpoint of a concentration-inhibition curve. Low readings indicate greater potency in that assay, high ones weaker potency in that assay. By Ki is commonly meant the dissociation constant of the complex between target and ligand, obtained from inhibition or displacement. Low values mean tighter binding, high ones weaker binding.

For data set [1], the target named is T1, Alpha-2A adrenergic receptor (Homo sapiens) (UniProt P08913).
T1 sequence (whole entry): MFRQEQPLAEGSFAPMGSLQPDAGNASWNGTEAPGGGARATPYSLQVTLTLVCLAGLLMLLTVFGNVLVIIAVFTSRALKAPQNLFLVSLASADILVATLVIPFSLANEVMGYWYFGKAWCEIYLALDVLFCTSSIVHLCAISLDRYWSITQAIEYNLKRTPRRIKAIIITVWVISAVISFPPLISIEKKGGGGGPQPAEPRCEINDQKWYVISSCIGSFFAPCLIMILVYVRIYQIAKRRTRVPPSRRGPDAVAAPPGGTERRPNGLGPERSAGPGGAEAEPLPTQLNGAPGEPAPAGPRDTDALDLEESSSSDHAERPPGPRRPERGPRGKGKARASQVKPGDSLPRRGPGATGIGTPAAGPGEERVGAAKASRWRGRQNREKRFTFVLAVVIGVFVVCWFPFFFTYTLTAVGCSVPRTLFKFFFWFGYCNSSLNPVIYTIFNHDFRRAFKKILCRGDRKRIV
The experiment in a line: Inhibition of adrenergic alpha2A receptor (unknown origin) at 10 uM.

The nature of data set [2]: Half life of compound in rat liver microsomes. The format is ADME. (Liver microsomes are a subcellular fraction often used to study metabolism.)
Data set [3] addresses T2, Glucocorticoid receptor (Homo sapiens, UniProt P04150).
T2 sequence (P04150 whole entry): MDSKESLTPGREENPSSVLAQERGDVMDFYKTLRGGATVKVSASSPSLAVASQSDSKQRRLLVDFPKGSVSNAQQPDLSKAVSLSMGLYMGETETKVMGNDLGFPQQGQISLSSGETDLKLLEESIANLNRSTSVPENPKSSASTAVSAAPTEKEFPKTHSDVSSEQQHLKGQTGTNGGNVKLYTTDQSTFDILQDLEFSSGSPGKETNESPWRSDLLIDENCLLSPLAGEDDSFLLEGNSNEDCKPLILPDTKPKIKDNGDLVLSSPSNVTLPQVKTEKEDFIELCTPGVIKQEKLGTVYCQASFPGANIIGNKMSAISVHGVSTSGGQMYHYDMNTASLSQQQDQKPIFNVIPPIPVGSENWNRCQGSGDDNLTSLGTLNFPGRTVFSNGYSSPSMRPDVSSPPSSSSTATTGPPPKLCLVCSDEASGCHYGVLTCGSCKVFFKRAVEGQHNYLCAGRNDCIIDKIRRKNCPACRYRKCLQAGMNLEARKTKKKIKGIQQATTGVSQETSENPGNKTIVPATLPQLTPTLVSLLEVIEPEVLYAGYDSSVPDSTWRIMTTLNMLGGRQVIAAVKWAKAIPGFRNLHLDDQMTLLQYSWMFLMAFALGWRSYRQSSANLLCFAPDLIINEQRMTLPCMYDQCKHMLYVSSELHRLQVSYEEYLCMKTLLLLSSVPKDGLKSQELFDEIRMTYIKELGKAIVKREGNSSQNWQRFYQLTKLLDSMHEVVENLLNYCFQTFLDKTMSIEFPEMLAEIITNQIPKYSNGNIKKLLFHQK
The experiment in a line: Inhibition of GST-tagged human glucocorticoid receptor LBD domain expressed in insect cells at by Gal4-based fluorescence polarization assay.

Data set [4] has as its target T3, Estrogen receptor (Homo sapiens, UniProt P03372).
T3 sequence (P03372 whole entry): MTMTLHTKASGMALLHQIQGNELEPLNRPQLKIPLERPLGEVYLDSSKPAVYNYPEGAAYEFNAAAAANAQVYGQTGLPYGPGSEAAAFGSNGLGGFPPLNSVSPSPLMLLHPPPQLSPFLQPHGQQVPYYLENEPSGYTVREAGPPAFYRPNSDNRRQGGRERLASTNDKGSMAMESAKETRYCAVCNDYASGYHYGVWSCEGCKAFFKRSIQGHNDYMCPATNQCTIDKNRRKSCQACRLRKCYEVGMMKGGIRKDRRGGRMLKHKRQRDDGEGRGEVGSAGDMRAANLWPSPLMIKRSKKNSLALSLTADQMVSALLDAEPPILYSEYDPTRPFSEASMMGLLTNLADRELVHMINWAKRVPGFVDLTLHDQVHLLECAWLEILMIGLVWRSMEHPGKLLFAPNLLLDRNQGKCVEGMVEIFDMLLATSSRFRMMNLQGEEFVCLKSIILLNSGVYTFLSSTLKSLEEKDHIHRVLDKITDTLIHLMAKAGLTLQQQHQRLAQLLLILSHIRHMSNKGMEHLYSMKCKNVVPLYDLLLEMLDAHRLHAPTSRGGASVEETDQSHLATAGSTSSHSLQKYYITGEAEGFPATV
The experiment in a line: Inhibition of estrogen receptor (unknown origin) by Gal4-based luciferase assay.

Data set [5] deals with Cytochrome P450 2D6 (Homo sapiens, UniProt P10635). The experiment in a line: Inhibition of CYP2D6 (unknown origin). The format is ADME.
Data set [6] deals with T4, Mineralocorticoid receptor (Homo sapiens, UniProt P08235, C808S).
The target of data set [7] is T5, Progesterone receptor (Homo sapiens, UniProt P06401).
T5 sequence (P06401 whole entry): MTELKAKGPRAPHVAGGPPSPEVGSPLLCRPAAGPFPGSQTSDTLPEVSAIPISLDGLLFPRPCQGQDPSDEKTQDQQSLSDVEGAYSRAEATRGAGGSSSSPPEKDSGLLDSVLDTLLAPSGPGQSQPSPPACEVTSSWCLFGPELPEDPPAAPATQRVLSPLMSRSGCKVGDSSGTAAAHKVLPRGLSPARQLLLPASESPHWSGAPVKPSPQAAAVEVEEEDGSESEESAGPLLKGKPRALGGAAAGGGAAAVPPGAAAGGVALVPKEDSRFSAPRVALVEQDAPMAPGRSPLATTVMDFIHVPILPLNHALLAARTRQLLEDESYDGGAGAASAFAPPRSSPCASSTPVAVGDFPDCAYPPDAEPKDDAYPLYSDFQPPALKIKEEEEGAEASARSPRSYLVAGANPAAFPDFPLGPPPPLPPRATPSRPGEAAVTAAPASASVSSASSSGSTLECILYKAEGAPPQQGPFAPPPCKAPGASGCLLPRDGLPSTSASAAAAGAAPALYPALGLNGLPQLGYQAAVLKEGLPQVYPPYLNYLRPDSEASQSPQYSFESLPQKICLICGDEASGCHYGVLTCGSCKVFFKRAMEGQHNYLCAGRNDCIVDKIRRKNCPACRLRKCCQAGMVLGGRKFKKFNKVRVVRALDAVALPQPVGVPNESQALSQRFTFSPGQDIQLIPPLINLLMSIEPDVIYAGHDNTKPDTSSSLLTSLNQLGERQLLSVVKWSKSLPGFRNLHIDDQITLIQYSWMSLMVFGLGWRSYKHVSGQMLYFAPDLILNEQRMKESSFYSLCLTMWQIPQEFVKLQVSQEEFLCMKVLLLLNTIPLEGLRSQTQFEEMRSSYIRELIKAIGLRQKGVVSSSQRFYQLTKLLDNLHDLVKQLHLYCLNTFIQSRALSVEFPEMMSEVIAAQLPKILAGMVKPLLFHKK
The experiment in a line: Inhibition of GST-tagged human progesterone receptor LBD domain expressed in insect cells by Gal4-based fluorescence polarization assay. A general note: Fluorescence polarisation rises when a labelled molecule tumbles more slowly, as on binding a larger partner.

For data set [8], the target named is Cytochrome P450 3A4 (Homo sapiens, UniProt P08684).
Description: Inhibition of CYP3A4 (unknown origin)
Data set [9] has as its target Cytochrome P450 2C9 (Homo sapiens, UniProt P11712). The data set can be described thus: Inhibition of CYP2C9 (unknown origin). The format is ADME.
Data set [10] concerns the target Histamine H1 receptor (Homo sapiens) (UniProt P35367). The experiment in a line: Inhibition of histamine H1 receptor (unknown origin) at 10 uM.
For data set [11], the target named is 5-hydroxytryptamine receptor 2B (Homo sapiens) (UniProt P41595). The experiment in a line: Inhibition of serotonin 5H2B receptor (unknown origin) at 10 uM.
Data set [12] addresses hERG (KCNH2) (Homo sapiens, UniProt Q12809). The data set can be described thus: Inhibition of human ERG (unknown origin) at 10 uM.
Data set [13] concerns the target T4, Mineralocorticoid receptor. The source holds these as a separate data set.

T4 sequence (P08235 whole entry C808S): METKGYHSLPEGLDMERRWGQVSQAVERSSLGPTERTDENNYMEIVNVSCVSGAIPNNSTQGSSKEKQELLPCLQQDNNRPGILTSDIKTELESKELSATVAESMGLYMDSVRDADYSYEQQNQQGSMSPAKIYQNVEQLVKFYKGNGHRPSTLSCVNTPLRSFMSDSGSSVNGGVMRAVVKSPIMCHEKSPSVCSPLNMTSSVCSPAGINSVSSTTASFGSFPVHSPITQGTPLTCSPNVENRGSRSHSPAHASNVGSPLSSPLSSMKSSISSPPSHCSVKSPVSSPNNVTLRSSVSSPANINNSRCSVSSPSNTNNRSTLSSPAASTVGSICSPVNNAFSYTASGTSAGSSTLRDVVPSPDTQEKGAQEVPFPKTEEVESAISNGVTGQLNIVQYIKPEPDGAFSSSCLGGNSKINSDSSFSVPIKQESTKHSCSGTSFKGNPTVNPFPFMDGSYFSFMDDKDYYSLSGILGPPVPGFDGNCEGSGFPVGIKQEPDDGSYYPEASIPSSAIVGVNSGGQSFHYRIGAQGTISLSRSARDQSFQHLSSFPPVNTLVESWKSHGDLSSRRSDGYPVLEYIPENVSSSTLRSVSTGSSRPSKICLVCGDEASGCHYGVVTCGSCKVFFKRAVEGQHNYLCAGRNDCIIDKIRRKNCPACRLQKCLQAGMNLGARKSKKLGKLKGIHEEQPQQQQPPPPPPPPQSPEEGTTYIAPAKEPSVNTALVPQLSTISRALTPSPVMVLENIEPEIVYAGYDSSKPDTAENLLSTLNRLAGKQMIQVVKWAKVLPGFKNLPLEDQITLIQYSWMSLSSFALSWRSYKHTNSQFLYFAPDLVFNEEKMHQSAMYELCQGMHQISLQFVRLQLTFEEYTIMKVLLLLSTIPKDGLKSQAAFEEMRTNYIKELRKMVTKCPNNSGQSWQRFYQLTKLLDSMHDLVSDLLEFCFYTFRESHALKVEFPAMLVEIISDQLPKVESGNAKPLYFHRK
Cytochrome P450 2D6, sequence (P10635 whole entry): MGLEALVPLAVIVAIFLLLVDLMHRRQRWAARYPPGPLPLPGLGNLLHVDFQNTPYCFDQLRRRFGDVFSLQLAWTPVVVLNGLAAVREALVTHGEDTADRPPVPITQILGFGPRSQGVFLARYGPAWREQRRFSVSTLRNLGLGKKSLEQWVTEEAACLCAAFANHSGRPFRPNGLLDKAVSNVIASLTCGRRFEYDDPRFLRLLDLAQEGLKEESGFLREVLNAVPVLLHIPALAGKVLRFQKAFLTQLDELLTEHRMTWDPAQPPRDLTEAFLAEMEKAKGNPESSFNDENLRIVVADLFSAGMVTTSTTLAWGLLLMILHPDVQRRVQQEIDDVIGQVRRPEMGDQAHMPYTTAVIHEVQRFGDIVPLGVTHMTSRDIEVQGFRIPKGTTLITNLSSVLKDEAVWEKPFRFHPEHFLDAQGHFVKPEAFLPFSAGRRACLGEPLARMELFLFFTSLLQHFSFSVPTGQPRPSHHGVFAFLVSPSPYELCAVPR
Cytochrome P450 2C9, sequence (P11712 whole entry): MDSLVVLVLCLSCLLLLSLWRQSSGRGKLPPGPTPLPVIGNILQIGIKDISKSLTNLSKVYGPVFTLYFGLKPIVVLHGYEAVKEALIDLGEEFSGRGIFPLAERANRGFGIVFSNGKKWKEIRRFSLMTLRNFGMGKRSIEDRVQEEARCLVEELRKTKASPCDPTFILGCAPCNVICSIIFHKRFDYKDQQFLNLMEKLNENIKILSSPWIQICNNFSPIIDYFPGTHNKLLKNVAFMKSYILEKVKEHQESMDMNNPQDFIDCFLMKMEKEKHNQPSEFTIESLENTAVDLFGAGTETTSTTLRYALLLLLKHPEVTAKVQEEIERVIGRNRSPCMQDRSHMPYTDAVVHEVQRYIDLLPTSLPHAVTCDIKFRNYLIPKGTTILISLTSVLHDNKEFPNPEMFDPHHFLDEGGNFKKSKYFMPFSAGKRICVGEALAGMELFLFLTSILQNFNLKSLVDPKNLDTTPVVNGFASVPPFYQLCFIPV
Cytochrome P450 3A4, sequence (P08684 whole entry): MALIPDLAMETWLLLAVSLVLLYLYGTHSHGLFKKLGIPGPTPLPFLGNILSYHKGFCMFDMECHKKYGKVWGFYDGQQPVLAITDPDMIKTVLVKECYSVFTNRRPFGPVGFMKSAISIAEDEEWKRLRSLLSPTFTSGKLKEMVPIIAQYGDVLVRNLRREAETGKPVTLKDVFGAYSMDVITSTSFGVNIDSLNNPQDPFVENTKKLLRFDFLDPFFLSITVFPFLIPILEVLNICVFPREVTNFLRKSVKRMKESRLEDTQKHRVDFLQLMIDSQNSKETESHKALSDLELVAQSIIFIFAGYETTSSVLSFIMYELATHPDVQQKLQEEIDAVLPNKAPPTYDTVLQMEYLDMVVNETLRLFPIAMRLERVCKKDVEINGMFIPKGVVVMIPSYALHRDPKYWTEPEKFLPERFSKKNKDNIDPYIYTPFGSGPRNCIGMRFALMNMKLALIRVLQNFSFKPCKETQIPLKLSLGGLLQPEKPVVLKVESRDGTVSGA
5-hydroxytryptamine receptor 2B (Homo sapiens), sequence (P41595 whole entry): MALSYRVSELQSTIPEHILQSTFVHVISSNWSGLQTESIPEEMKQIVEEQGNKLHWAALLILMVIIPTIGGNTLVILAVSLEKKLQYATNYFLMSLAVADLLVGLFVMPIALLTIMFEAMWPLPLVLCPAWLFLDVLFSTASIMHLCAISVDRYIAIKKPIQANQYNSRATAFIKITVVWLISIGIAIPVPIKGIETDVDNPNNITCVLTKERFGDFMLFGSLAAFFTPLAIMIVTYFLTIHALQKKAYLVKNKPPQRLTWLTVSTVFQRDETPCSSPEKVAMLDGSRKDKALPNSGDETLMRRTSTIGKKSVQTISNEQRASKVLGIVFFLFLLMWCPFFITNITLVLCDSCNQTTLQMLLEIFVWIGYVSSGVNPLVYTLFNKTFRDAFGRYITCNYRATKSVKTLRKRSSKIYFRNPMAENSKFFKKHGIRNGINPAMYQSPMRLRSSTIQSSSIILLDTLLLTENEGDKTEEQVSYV
Histamine H1 receptor (Homo sapiens), sequence (P35367 whole entry): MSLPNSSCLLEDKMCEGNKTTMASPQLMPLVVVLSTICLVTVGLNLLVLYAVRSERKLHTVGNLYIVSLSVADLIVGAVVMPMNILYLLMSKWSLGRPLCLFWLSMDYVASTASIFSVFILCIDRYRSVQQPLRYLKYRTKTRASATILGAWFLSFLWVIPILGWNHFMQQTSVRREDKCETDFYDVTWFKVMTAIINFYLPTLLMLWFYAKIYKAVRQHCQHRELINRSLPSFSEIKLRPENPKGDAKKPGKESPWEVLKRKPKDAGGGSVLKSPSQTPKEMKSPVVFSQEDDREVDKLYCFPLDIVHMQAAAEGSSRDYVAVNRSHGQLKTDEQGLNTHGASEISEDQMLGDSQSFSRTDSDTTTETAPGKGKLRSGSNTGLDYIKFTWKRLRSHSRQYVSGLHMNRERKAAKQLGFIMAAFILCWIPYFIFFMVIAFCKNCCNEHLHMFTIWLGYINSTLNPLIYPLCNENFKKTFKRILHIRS
hERG (KCNH2), sequence (Q12809 whole entry): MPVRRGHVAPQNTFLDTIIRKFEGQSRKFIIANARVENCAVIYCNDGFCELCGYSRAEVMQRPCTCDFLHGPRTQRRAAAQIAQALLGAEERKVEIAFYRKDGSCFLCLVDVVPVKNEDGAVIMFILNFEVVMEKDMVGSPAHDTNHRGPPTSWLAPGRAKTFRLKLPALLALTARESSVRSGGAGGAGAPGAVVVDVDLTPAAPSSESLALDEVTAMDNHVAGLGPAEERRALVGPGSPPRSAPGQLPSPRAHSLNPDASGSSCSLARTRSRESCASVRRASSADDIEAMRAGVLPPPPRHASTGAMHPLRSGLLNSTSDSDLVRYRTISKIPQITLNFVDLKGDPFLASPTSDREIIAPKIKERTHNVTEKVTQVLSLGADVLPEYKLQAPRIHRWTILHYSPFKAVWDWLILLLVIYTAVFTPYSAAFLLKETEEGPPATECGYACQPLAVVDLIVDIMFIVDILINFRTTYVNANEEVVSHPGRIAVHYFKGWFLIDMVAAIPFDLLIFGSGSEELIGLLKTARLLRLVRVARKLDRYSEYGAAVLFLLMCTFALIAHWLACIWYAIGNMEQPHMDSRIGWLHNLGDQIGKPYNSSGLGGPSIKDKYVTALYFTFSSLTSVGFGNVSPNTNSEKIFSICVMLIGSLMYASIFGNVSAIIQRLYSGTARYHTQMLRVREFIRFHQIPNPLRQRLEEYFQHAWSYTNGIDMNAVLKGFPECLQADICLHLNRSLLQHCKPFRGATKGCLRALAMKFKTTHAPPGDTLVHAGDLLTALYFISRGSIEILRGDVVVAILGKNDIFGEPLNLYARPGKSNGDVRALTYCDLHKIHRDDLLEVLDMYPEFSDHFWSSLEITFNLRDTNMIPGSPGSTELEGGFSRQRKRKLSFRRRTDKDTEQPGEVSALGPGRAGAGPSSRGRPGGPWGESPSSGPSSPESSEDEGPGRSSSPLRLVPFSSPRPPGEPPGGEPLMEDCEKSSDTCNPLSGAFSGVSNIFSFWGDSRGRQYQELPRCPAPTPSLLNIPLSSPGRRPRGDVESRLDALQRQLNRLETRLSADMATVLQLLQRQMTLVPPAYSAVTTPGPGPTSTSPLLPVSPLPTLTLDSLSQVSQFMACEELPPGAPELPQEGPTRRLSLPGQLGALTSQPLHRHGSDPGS

For the compound `CC1(C)OC(=S)Nc2ccc(S(=O)(=O)N3c4ccccc4COc4cc(F)ccc43)cc21`, the inhibition worked out at 85% in [1], 33% in [10] and 71% in [11]. Also, the half-life in data set [2] was over 1 h. The IC50 was 651 nM in [3]; over 2000 nM in data set [4]; 4100 nM in [5]; 21 nM in [6]; over 2000 nM in [7]; 363 nM in data set [8]. This compound registered an IC50 in data set [9] of 397 nM. In data set [12], this compound registered an inhibition at 10 µM of 48%. Besides, the affinity in data set [13], expressed as Ki, was 6 nM.

In the case of `O=C(O)CCN1CCC2(CC1)C(=O)Nc1cc(/C=C3\c4ccccc4COc4cc(F)ccc43)ccc12`, the figures for the inhibition in [1], in data set [10] and in data set [11] were 75%, 60% and 36%, respectively. Moreover, the half-life in data set [2] is over 1 h. The 50% inhibitory concentration (IC50) was over 12000 nM in [3]; over 12000 nM in [4]; 29900 nM in data set [5]; 29 nM in data set [6]; over 12000 nM in [7]; 26000 nM in [8]. In [9], this compound yielded an IC50 of 12600 nM. In addition, the inhibition at 10 µM in [12] came to 32%. In addition, the affinity in data set [13], expressed as Ki, was 16 nM.
